Usually EC50 stands for the concentration at which the effect is half-maximal. The low end stands for a more potent agent, the high end for a less potent agent.

Where a SMILES comes first, the peptide text is derived from it. Bridges are numbered along the chain shown (N, C = ends).

Here are results for 6 molecules from patent publication US9062124B2, “GIP-based mixed agonists for treatment of metabolic disorders and obesity” (priority 2008, dated 2015).

Common to all, as to format: cell-based
One test addresses T1, GLP-1 receptor (Homo sapiens, UniProt P43220).
T1 construct: expressed in transfected cells; host or cells: HEK293
Briefly: cAMP synthesis functional assay (firefly luciferase reporter in HEK293 cells), GLP-1 receptor. The settings on record: Table 1; relative to the native hormone of the indicated receptor. Background: Reporter assays use an easily measured gene product as a stand-in for the process of interest.

The target in a further test is T2, glucagon receptor (Homo sapiens, UniProt P47871).
T2 construct: expressed in transfected cells; host or cells: HEK293
T2 sequence (P47871 26-477): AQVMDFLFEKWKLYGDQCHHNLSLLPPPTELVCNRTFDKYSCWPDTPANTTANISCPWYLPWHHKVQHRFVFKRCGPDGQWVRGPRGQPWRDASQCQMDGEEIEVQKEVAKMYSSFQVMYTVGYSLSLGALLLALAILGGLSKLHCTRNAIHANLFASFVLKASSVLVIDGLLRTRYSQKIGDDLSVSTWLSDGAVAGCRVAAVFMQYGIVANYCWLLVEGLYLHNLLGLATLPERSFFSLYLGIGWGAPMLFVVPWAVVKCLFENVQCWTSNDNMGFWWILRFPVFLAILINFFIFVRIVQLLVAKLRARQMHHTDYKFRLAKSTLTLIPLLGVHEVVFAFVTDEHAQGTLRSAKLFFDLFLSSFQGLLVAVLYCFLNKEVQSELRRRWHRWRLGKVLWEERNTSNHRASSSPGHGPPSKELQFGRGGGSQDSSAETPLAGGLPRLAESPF
Briefly: cAMP synthesis functional assay (firefly luciferase reporter in HEK293 cells), glucagon receptor. To be noted: Table 1; for Glucagon Receptor relative activity: relative to the native hormone of the indicated receptor.

The target in a further test is T3, GIP receptor (Homo sapiens, UniProt P48546).
T3 construct: expressed in transfected cells; host or cells: HEK293
T3 sequence (P48546 22-466): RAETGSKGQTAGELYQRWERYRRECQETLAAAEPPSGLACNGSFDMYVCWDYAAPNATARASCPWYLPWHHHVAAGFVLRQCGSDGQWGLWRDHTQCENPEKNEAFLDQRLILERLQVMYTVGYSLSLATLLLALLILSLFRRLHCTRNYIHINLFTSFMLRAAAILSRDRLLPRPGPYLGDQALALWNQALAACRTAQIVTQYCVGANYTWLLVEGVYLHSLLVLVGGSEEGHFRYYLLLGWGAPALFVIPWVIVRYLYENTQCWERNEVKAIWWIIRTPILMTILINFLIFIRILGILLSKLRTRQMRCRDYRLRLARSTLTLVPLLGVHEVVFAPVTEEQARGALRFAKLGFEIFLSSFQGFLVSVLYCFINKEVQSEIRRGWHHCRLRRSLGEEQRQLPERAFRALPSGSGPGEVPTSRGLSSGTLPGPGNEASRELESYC
Briefly: cAMP synthesis functional assay (firefly luciferase reporter in HEK293 cells), GIP receptor. To be noted: Table 1; relative to the native hormone of the indicated receptor.

T1 sequence (P43220 24-463, species assumed): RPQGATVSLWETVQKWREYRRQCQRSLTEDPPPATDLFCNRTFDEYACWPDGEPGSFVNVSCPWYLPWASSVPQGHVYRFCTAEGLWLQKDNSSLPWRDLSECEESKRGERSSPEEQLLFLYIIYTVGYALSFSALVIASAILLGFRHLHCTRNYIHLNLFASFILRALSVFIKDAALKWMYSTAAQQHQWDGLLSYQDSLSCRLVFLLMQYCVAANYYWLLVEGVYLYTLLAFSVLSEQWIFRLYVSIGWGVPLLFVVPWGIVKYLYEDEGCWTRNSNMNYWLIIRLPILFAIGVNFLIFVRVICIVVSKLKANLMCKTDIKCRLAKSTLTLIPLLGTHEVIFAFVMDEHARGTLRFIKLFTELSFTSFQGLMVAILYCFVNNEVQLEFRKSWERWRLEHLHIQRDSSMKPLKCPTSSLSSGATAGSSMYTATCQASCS

For the molecule `CC[C@H](C)[C@H](NC(=O)[C@H](CO)NC(=O)[C@H](Cc1ccc(O)cc1)NC(=O)[C@H](CC(=O)O)NC(=O)[C@H](CO)NC(=O)[C@@H](NC(=O)[C@H](Cc1ccccc1)NC(=O)[C@@H](NC(=O)CNC(=O)[C@H](CCC(=O)O)NC(=O)[C@H](C)NC(=O)[C@@H](N)Cc1c[nH]cn1)[C@@H](C)O)[C@@H](C)CC)C(=O)N[C@@H](C)C(=O)N[C@@H](CCSC)C(=O)N[C@@H](CC(=O)O)C(=O)N[C@H]1CCC(=O)NCCCC[C@@H](C(=O)N[C@@H](CC(=O)O)C(=O)N[C@@H](Cc2ccccc2)C(=O)N[C@H](C(=O)N[C@@H](CC(N)=O)C(=O)N[C@@H](Cc2c[nH]c3ccccc23)C(=O)N[C@@H](CC(C)C)C(=O)N[C@@H](CC(C)C)C(=O)N[C@@H](C)C(=O)N[C@@H](CCC(N)=O)C(N)=O)C(C)C)NC(=O)[C@H](CCC(N)=O)NC(=O)[C@H](Cc2c[nH]cn2)NC(=O)[C@H]([C@@H](C)CC)NC1=O` [mt-95] (H-HAEGTFISDYSIAMDEIHQKDFVNWLLAQ-NH2; lactam 16-20; N-terminus assumed), the “GLP-1 Receptor relative activity” value at GLP-1 receptor is on record as 0.08%. The “Glucagon Receptor relative activity” value at glucagon receptor was 0.04%. Besides, the “GIP Receptor relative activity” value on GIP receptor worked out at 10.54%.
The matching figures for `CC[C@H](C)[C@H](NC(=O)[C@H](CO)NC(=O)[C@H](Cc1ccc(O)cc1)NC(=O)[C@H](CC(=O)O)NC(=O)[C@H](CO)NC(=O)[C@@H](NC(=O)[C@H](Cc1ccccc1)NC(=O)[C@@H](NC(=O)CNC(=O)[C@H](CCC(=O)O)NC(=O)[C@H](C)NC(=O)[C@@H](N)Cc1ccc(O)cc1)[C@@H](C)O)[C@@H](C)CC)C(=O)N[C@@H](C)C(=O)N[C@@H](CCSC)C(=O)N[C@@H](CC(=O)O)C(=O)N[C@H]1CCC(=O)NCCCC[C@@H](C(=O)N[C@@H](CC(=O)O)C(=O)N[C@@H](Cc2ccccc2)C(=O)N[C@H](C(=O)N[C@@H](CC(N)=O)C(=O)N[C@@H](Cc2c[nH]c3ccccc23)C(=O)N[C@@H](CC(C)C)C(=O)N[C@@H](CC(C)C)C(=O)N[C@@H](C)C(=O)N[C@@H](CCC(N)=O)C(N)=O)C(C)C)NC(=O)[C@H](CCC(N)=O)NC(=O)[C@H](Cc2c[nH]cn2)NC(=O)[C@H]([C@@H](C)CC)NC1=O` [mt-96] (H-YAEGTFISDYSIAMDEIHQKDFVNWLLAQ-NH2; lactam 16-20; N-terminus assumed): 0.04%, 0.29% and 84.48%.
Turning to `CC[C@H](C)[C@H](NC(=O)[C@H](CO)NC(=O)[C@H](Cc1ccc(O)cc1)NC(=O)[C@H](CC(=O)O)NC(=O)[C@H](CO)NC(=O)[C@@H](NC(=O)[C@H](Cc1ccccc1)NC(=O)[C@@H](NC(=O)CNC(=O)[C@H](CCC(=O)O)NC(=O)[C@H](C)NC(=O)[C@@H](N)Cc1c[nH]cn1)[C@@H](C)O)[C@@H](C)O)C(=O)N[C@@H](Cc1ccc(O)cc1)C(=O)N[C@@H](CCSC)C(=O)N[C@@H](CC(=O)O)C(=O)N[C@H]1CCC(=O)NCCCC[C@@H](C(=O)N[C@@H](CC(=O)O)C(=O)N[C@@H](Cc2ccccc2)C(=O)N[C@H](C(=O)N[C@@H](CC(N)=O)C(=O)N[C@@H](Cc2c[nH]c3ccccc23)C(=O)N[C@@H](CC(C)C)C(=O)N[C@@H](CC(C)C)C(=O)N[C@@H](C)C(=O)N[C@@H](CCC(N)=O)C(N)=O)C(C)C)NC(=O)[C@H](CCC(N)=O)NC(=O)[C@H](Cc2c[nH]cn2)NC(=O)[C@H]([C@@H](C)CC)NC1=O` [mt-97] (H-HAEGTFTSDYSIYMDEIHQKDFVNWLLAQ-NH2; lactam 16-20; N-terminus assumed), the “GLP-1 Receptor relative activity” value at GLP-1 receptor came to 1.27%. The “Glucagon Receptor relative activity” value at glucagon receptor was 3.19%. The “GIP Receptor relative activity” value at GIP receptor came out at 2.81%.
`CC[C@H](C)[C@H](NC(=O)[C@H](CO)NC(=O)[C@H](Cc1ccc(O)cc1)NC(=O)[C@H](CC(=O)O)NC(=O)[C@H](CO)NC(=O)[C@@H](NC(=O)[C@H](Cc1ccccc1)NC(=O)[C@@H](NC(=O)CNC(=O)[C@H](CCC(=O)O)NC(=O)[C@H](C)NC(=O)[C@@H](N)Cc1ccc(O)cc1)[C@@H](C)O)[C@@H](C)O)C(=O)N[C@@H](Cc1ccc(O)cc1)C(=O)N[C@@H](CCSC)C(=O)N[C@@H](CC(=O)O)C(=O)N[C@H]1CCC(=O)NCCCC[C@@H](C(=O)N[C@@H](CC(=O)O)C(=O)N[C@@H](Cc2ccccc2)C(=O)N[C@H](C(=O)N[C@@H](CC(N)=O)C(=O)N[C@@H](Cc2c[nH]c3ccccc23)C(=O)N[C@@H](CC(C)C)C(=O)N[C@@H](CC(C)C)C(=O)N[C@@H](C)C(=O)N[C@@H](CCC(N)=O)C(N)=O)C(C)C)NC(=O)[C@H](CCC(N)=O)NC(=O)[C@H](Cc2c[nH]cn2)NC(=O)[C@H]([C@@H](C)CC)NC1=O` [mt-98] (H-YAEGTFTSDYSIYMDEIHQKDFVNWLLAQ-NH2; lactam 16-20; N-terminus assumed): the “GLP-1 Receptor relative activity” value on GLP-1 receptor was determined as 1.42%. For the same molecule, on glucagon receptor, the “Glucagon Receptor relative activity” value amounted to 0.01%. Also, the “GIP Receptor relative activity” value on GIP receptor worked out at 25.00%.
In the same order, the values of `CC[C@H](C)[C@H](NC(=O)[C@H](CO)NC(=O)[C@H](Cc1ccc(O)cc1)NC(=O)[C@H](CC(=O)O)NC(=O)[C@H](CO)NC(=O)[C@@H](NC(=O)[C@H](Cc1ccccc1)NC(=O)[C@@H](NC(=O)CNC(=O)[C@H](CCC(=O)O)NC(=O)[C@H](C)NC(=O)[C@@H](N)Cc1ccc(O)cc1)[C@@H](C)O)[C@@H](C)CC)C(=O)N[C@@H](C)C(=O)N[C@@H](CCSC)C(=O)N[C@@H](CC(=O)O)C(=O)N[C@@H](CCCCN)C(=O)N[C@H](C(=O)N[C@@H](Cc1c[nH]cn1)C(=O)N[C@@H](CCC(N)=O)C(=O)N[C@@H](CCC(N)=O)C(=O)N[C@@H](CC(=O)O)C(=O)N[C@@H](Cc1ccccc1)C(=O)N[C@H](C(=O)N[C@@H](CC(N)=O)C(=O)N[C@@H](Cc1c[nH]c2ccccc12)C(=O)N[C@@H](CC(C)C)C(=O)N[C@@H](CC(C)C)C(=O)N[C@@H](C)C(=O)N[C@@H](CCC(N)=O)C(=O)N[C@@H](CCCCN)C(=O)NCC(=O)N[C@@H](CCCCN)C(=O)N[C@@H](CCCCN)C(=O)N[C@@H](CC(N)=O)C(=O)N[C@@H](Cc1c[nH]c2ccccc12)C(=O)N[C@@H](CC(C)C)C(=O)N[C@@H](CCCCN)C(=O)N[C@@H](Cc1c[nH]cn1)C(=O)N[C@@H](CC(N)=O)C(=O)N[C@H](C(=O)N[C@H](C(=O)N[C@@H](CCC(N)=O)C(N)=O)[C@@H](C)O)[C@@H](C)CC)C(C)C)[C@@H](C)CC` [mt-99] are 0.00%, 0.00% and 100.00%.
Turning to `CC[C@H](C)[C@H](NC(=O)[C@H](Cc1ccccc1)NC(=O)[C@H](CCC(=O)O)NC(=O)[C@@H]1CCCCNC(=O)CC[C@H](NC(=O)[C@H](CC(=O)O)NC(=O)[C@H](CC(C)C)NC(=O)[C@H](Cc2ccc(O)cc2)NC(=O)[C@H](CCCCN)NC(=O)[C@H](CO)NC(=O)[C@H](Cc2ccc(O)cc2)NC(=O)[C@H](CC(=O)O)NC(=O)[C@H](CO)NC(=O)[C@@H](NC(=O)[C@H](Cc2ccccc2)NC(=O)[C@@H](NC(=O)CNC(=O)[C@H](CCC(N)=O)NC(=O)[C@H](CO)NC(=O)[C@@H](N)Cc2c[nH]cn2)[C@@H](C)O)[C@@H](C)CC)C(=O)N[C@@H]([C@@H](C)CC)C(=O)N[C@@H](Cc2c[nH]cn2)C(=O)N[C@@H](CCC(N)=O)C(=O)N1)C(=O)N[C@@H](C)C(=O)N[C@@H](Cc1c[nH]c2ccccc12)C(=O)N[C@@H](CC(C)C)C(=O)N[C@@H](CCSC)C(=O)N[C@@H](CC(N)=O)C(=O)N[C@H](C(N)=O)[C@@H](C)O` [mt-107] (H-HSQGTFISDYSKYLDEIHQKEFIAWLMNT-NH2; lactam 16-20; N-terminus assumed), the “GLP-1 Receptor relative activity” value at GLP-1 receptor is reported as 0.16%. On glucagon receptor (Glucagon Receptor EC50, nM), it took 0.07 nM to reach a half-maximal effect (EC50). Besides, on glucagon receptor, the “Glucagon Receptor relative activity” value is on record as 185.71%. The “GIP Receptor relative activity” value on GIP receptor is given as 0.74%.
